Test results as given in patent publication US10954222B2, “Benzothiophene compound, alternative autophagy-inducing agent and anticancer agent including the compound as active ingredient, and method for screening for compound having anticancer activity” (National University Corporation Tokyo Medical and Dental …, priority 2012, dated 2021).
Like-named read-outs stand apart in the source and are kept apart here.

Legend:
[1] = test system: tumor cell line 53T implanted in wild-type C57/B6J mice; test: In vivo anticancer activity, tumor volume in cancer-bearing mice implanted with 53T; design: species or system mouse
Procedure: A tumor cell line (also referred to as “53T”) established from a tumor developed spontaneously in a p53 deficient C57/B6J mouse was implanted at 4 sites in the ventral skin of each of wild-type C57/B6J mice at 3×10^5 cells per site. From the following day, the compounds were administered to the mice every other day five times in total. The concentration of each compound was 0.4 μmol/(50 μl DMSO+100 μl PBS)/mouse/administration. In addition, a negative control group to which only the same amount of DMSO was administered was prepared. Then, 21 days (3 weeks) after the implantation, the tumor diameters of the mice were measured, and the tumor volumes were calculated, and compared with that of the control group.
The 53T was implanted at 4 sites in the ventral skin of each of wild-type C57/B6J mice at 3×10^5 cells per site. From the following day, 0 (DMSO alone), 5, 10, or 20 μM of each of compounds #09 and #13 was administered to six mice every other day five times in total. Then, 21 days (3 weeks) after the implantation, the tumor diameters of the mice were measured, and the tumor volumes were calculated. FIGS. 9 and 11 show the obtained results. Note that, in FIGS. 9 and 11, each point indicates the average volume of the tumors at the four sites in a mouse.
In addition, in the same manner as described above, the 53T was implanted in mice, and, from the following day, each of compound #09 at a concentration of 10 μM and compound #13 at a concentration of 5 μM was administered to four cancer-bearing mice every other day five times in total. Then, 21 days (3 weeks) after the implantation, the tumor diameters of the mice were measured, and the tumor volumes were calculated. In addition, a negative control to which DMSO was administered was also prepared, and the tumor volume was calculated in the same manner. In addition, these experiments were conducted three times independently of each other. FIGS. 10 and 12 show the obtained results. Note that in FIGS. 10 and 12, each point indicates the average volume of the tumors at the four sites in a mouse.

[2] = test system: fibroblasts (cancer cells) immortalized with SV40; test: Activity to induce cell death specific to cancer cells: cancer cells (CTB survival rate); assay type: cell-based; details: 20 μM, FIGS. 7 and 8
[3] = test system: mouse tumor cell line 53T; test: Evaluation of in vitro anticancer activity (Cell titer blue, cell death induction rate); assay type: cell-based; design: key: (CTB of negative control − CTB treated)/CTB of negative control; details: 24 hours, CTB
Procedure: First, the mouse tumor cell line 53T was seeded at 2×10^4/well on 96 well plates. Then, on the following day, each of compounds #09 and #13 dissolved in DMSO was added at a final concentration of 1, 5, 10, 20, or 50 μM. In addition, a negative control to which only DMSO was added was prepared. Subsequently, the cells were cultured at 37° C. under 10% CO2 for 24 hours. Then, by using Cell titer blue (CTB) (manufactured by Promega) according to the attached protocol, the amount of the fluorescence of each well of the cells 10 minutes after the addition of the CTB reagent was measured as a CTB measurement value of the cells brought into contact with compound #09 or #13. On the basis of such measurement values, the cell death induction rate of each of compounds #09 and #13 was calculated according to the following formula. Cell death induction rate=(CTB measurement value of negative control−CTB measurement value of cells to which compound was added)/CTB measurement value of negative control

[4] = test system: p53-deficient cancer cells (53T); test: Alternative autophagy-inducing activity in tumor cell line (Lamp2 aggregation, fluorescence and electron microscope); assay type: cell-based, mouse; details: 20 μM, six hours, FIGS. 3 to 6
Procedure: In the same manner as in the above-described <Evaluation of Alternative Autophagy-Inducing Activity> using the Lamp1-GFP/ATG5-KO MEFs, each of the compounds #09 and #13 was added at a final concentration of 20 μM to a culture liquid of the tumor cell line (also referred to as “53T”) established from the tumor developed spontaneously in the p53 deficient C57/B6J mouse. […] Note that, in this evaluation, Lamp2 was used instead of Lamp1. FIGS. 3 to 6 show the obtained results.

[5] = test system: MEFs immortalized with SV40T antigen; test: cells; details: Mus musculus, 24 h, read-out: induced cell death of the MEFs immortalized with SV40T antigen
[6] = test system: 53T implanted in wild-type C57/B6J mice; test: Survival rate of cancer-bearing mice; assay type: in vivo, mouse; details: 10 μM every other day 5 times; compared with etoposide at 10 μM, FIGS. 13 to 15
[7] = test system: primary cultured fibroblasts (normal cells); test: Activity to induce cell death specific to cancer cells: normal cells (CTB survival rate); assay type: cell-based; details: 20 μM, FIGS. 7 and 8
Procedure: CTB measurement values were obtained in the same manner as in the above-described <Evaluation of In Vitro Anticancer Activity> by adding each of compounds #09 and #13 at a final concentration of 20 μM to culture liquids of primary cultured fibroblasts (normal cells) and fibroblasts (cancer cells) immortalized with SV40. On the basis of the obtained CTB measurement values, the cell survival rate was calculated over time. Note that the cell survival rate was defined as 1-cell death induction rate. FIGS. 7 and 8 show the obtained results.

Lamp1-GFP/ATG5-KO MEFs = test: Evaluation of activity to induce alternative autophagy (fluorescent bright spots due to aggregation of Lamp1-GFP); assay type: cell-based, mouse
Procedure: First, by using a retrovirus, a gene for expression of a Lamp1-GFP fusion protein (also referred to as “Lamp1-GFP”) was introduced into ATG5-deficient mouse embryonic fibroblasts (also referred to as “ATG5-KO MEFs”). Then, a cell with high expression of Lamp1-GFP was cloned and prepared as Lamp1-GFP/ATG5-KO MEFs.
The ATG5-KO MEFs were prepared by introducing a gene for expression of SV40T antigen into MEFs established from an ATG5-deficient C57/B6J mouse at a fetal age of 14.5 days by an electroporation method using an Nucleofector system (manufactured by amaxa) for immortalization. In addition, the retrovirus was prepared by introducing an MSCV-Lamp1-GFP (zeocin resistant) vector into plat E cells, which were retrovirus packaging cells.
To the Lamp1-GFP/ATG5-KO MEFs seeded at 1×10^4/96 wells on the preceding day, each of the test compounds was added at a final concentration of 50 μM, and the Lamp1-GFP/ATG5-KO MEFs were cultured at 37° C. under 10% CO2 for 5 hours.
Then, for observation, Hoechst 33342 (manufactured by invitrogen) was added at a final concentration of 1 ng/ml to each culture liquid, followed by incubation for 5 minutes. Then, the culture liquid was replaced with 100 μl of HBSS. Subsequently, five visual fields per well were photographed at random with IN CELL ANALYZER 1000 (manufactured by GE Healthcare).
Then, the thus obtained novel benzothiophene compounds (TMD-459 and TMD-460) were evaluated for the ability to induce alternative autophagy by the same method as that described in Example 1. Note that, in Example 10, each of the compounds was added to culture liquids at final concentrations of 10, 20, 30, 40, and 50 μM. In addition, compound #9 was also added as a reference example to culture liquids at the above-described concentrations. Then, 5 hours after the addition of each of these compounds, five visual fields per each well were photographed at random with IN CELL ANALYZER 1000, and the presence or absence of fluorescent bright spots due to the aggregation of Lamp1-GFP was visually determined.

[8] = test system: MEFs immortalized with SV40T antigen; details: 24 hours, CTB

Compound: CCOC(=O)c1c(NC(C)=O)sc2c(OCCN(CC)CC)c(Br)ccc12 [Compound #09, Ethyl 2-Acetylamino-6-bromo-7-[2-(N,N-diethylamino)ethyloxy]benzo[b]thiophene-3-carboxylate]
- dose dependence of in vivo anticancer activity (FIG. 9) ([1]; 0, 5, 10, or 20 μM): dose-dependent activity
- in vivo anticancer activity (tumor volume vs control group, FIG. 2) ([1]; 0.4 μmol/mouse/administration, every other day five times, 21 days after implantation): selected as compounds having in vivo anticancer activity
- in vivo anticancer activity (tumor volume, FIGS. 9 to 12) ([1]; 5, 10, or 20 μM every other day five times, 21 days after implantation): exhibited in vivo anticancer activity
- anticancer activity (FIG. 17, tumor volumes in cancer-bearing mice) ([1]; Example 9): had anticancer activity
- cell death-inducing activity on cancer cells (cell survival rate over time) [2]: exhibited remarkable cell death-inducing activity on the cancer cells
- Cell death induction rate ([3]; 1 μM): 0
- Cell death induction rate ([3]; 5 μM): 0.07741
- Cell death induction rate ([3]; 10 μM): 0.1725
- Cell death induction rate ([3]; 20 μM): 0.6305
- Cell death induction rate ([3]; 50 μM): 0.9456
- aggregation of Lamp2 and occurrence of autophagy [4]: aggregation of the lysosomal protein Lamp2 and occurrence of autophagy were observed
- mortality at 20 µM [5]: ≥ 80%
- improvement effect on the survival rate of the cancer-bearing mice [6]: higher improvement effect on the survival rate of the cancer-bearing mice than etoposide
- cell death of normal cells (cell survival rate over time) [7]: hardly induced cell death of the normal cells
- alternative autophagy-inducing activity (FIG. 16) (Lamp1-GFP/ATG5-KO MEFs; Example 9, same method as Example 1): having alternative autophagy-inducing activity
- aggregation of Lamp1-GFP, visually determined (Lamp1-GFP/ATG5-KO MEFs; concentrations of 10 μM or higher (10 to 50 μM), 5 hours): aggregation of the Lamp1-GFP was observed in all the cells
- Cell death induction rate ([8]; 10 μM): 0.7426
- Cell death induction rate ([8]; 20 μM): 0.887
- Cell death induction rate ([8]; 30 μM): 0.89
- Cell death induction rate ([8]; 40 μM): 0.8913
- Cell death induction rate ([8]; 50 μM): 0.8848
